The source of these data is patent US8680275B2, “Fused heterocyclic compounds as orexin receptor modulators” (Janssen Pharmaceutica NV, priority 2009, dated 2014).

Like-named read-outs stand apart in the source and are kept apart here.

One test deals with human orexin 1 receptor (Homo sapiens (Human), UniProt O43613). Briefly: Human orexin 1 receptor radioligand binding ([3H]-SB674042 competition). Conditions: CHO cells stably expressing human orexin 1 receptor; [3H]-SB674042 4 nM final; read-out: OR-1 Ki. In outline:
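CHO cells stably expressing human OX1R incubated 60 min at room temperature with [3H]-SB674042 and compounds (7 concentrations, 0.1 nM–10 μM; DMSO ≤0.1%) in PBS. Nonspecific binding defined with 10 μM of a reference urea antagonist; bound radioactivity measured by filtration and scintillation counting.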

For another test, the target named is human orexin-2 receptor (Homo sapiens (Human), UniProt O43614). Briefly: Human orexin 2 receptor radioligand binding ([3H]-EMPA competition). Conditions: read-out: OR-2 Ki. In outline:
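Competition binding on HEK293 cells stably expressing human orexin-2 receptor, using 5 nM final [3H]-EMPA in PBS, compounds 0.1 nM to 10 μM (DMSO ≤0.1%). 60 min at room temperature, then filtration and scintillation counting; nonspecific binding defined with 10 μM of a reference antagonist.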

[1] abbreviates: HEK293 cells stably expressing human orexin-2 receptor, [3H]-EMPA 5 nM final.

As usually defined, the Ki is the dissociation constant of the complex between target and ligand, obtained from inhibition or displacement.

Chain of human orexin-2 receptor (O43614 whole entry): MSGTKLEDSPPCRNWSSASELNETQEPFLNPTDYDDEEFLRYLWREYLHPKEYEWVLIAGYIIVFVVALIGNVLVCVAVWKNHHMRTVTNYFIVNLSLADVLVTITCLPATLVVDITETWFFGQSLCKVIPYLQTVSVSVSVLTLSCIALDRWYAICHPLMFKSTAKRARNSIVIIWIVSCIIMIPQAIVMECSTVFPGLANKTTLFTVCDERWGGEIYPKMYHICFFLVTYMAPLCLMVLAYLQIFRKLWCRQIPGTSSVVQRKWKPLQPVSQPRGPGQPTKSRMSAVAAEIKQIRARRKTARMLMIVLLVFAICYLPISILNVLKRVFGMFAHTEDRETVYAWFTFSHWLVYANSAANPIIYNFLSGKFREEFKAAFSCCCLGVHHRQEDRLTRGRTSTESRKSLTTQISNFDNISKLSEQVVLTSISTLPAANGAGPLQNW
Chain of human orexin 1 receptor (O43613 whole entry): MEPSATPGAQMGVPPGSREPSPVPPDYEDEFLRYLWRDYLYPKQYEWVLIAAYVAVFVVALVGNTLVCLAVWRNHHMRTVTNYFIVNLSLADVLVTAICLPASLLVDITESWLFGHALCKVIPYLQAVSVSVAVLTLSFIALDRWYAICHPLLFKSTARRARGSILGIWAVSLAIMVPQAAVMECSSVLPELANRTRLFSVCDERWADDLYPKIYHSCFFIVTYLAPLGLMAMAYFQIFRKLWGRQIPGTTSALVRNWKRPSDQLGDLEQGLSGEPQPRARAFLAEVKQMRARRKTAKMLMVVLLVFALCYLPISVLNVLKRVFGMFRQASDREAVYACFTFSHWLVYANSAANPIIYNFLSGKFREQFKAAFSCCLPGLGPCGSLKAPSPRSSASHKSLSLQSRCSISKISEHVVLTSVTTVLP

Turning to `COc1ccc(C(=O)N2CC[C@H]3CN(c4cc(C(F)(F)F)ccn4)[C@H]3C2)c(-n2nccn2)c1` [Example 146, (1R,6S)-3-{[4-Methoxy-2-(2H-1,2,3-triazol-2-yl)phenyl]carbonyl}-8-[4-(trifluoromethyl)pyridin-2-yl]-3,8-diazabicyclo[4.2.0]octane], the Ki at human orexin 1 receptor was found to be 9000 nM; on human orexin-2 receptor (setting [1]), 299 nM.
In the same order, the values of `O=C(c1ccccc1-c1cccnc1)N1CC[C@H]2CN(c3cnc4ccccc4n3)[C@H]2C1` [Example 14, (1R,6S)(2-Pyridin-3-yl-phenyl)-(8-quinoxalin-2-yl-3,8-diaza-bicyclo[4.2.0]oct-3-yl)-methanone] are 96 nM and 114 nM.
In the case of `Cc1cnc(C)c(N2C[C@@H]3CCN(C(=O)c4cc(F)ccc4-n4nccn4)C[C@@H]32)n1` [Example 97, (1R,6S)-8-(3,6-Dimethylpyrazin-2-yl)-3-{[5-fluoro-2-(2H-1,2,3-triazol-2-yl)phenyl]carbonyl}-3,8-diazabicyclo[4.2.0]octane], the inhibitory constant (Ki) was 5020 nM on human orexin 1 receptor and 1290 nM on human orexin-2 receptor (setting [1]).
Consider `O=C(c1cc(F)ccc1-n1nccn1)N1CC[C@H]2CN(c3nc4cc(Cl)ccc4o3)[C@H]2C1` [Example 121, 5-Chloro-2-[(1R,6S)-3-{[5-fluoro-2-(2H-1,2,3-triazol-2-yl)phenyl]carbonyl}-3,8-diazabicyclo[4.2.0]oct-8-yl]-1,3-benzoxazole], for which the Ki on human orexin 1 receptor amounted to 91 nM; on human orexin-2 receptor it was 75 nM.
As to `O=C(c1cccc(F)c1-n1nccn1)N1CC[C@H]2CN(c3cnc4ccccc4n3)[C@H]2C1` [Example 116, 2-[(1R,6S)-3-{[3-Fluoro-2-(2H-1,2,3-triazol-2-yl)phenyl]carbonyl}-3,8-diazabicyclo[4.2.0]oct-8-yl]quinoxaline], the figures for the Ki at human orexin 1 receptor and on human orexin-2 receptor (setting [1]) were 23 nM and 28 nM, respectively.
For `O=C(c1cc(F)ccc1-n1nccn1)N1CC[C@H]2CN(c3cnc4ccccc4n3)[C@H]2C1` [Example 118, 2-[(1R,6S)-3-{[5-Fluoro-2-(2H-1,2,3-triazol-2-yl)phenyl]carbonyl}-3,8-diazabicyclo[4.2.0]oct-8-yl]quinoxaline], in that order: 33 nM and 40 nM.
Regarding `O=C(c1c(F)cccc1-n1nccn1)N1CC[C@H]2CN(c3nccc(C(F)(F)F)n3)[C@H]2C1` [Example 95, (1R,6S)-3-{[2-Fluoro-6-(2H-1,2,3-triazol-2-yl)phenyl]carbonyl}-8-[4-(trifluoromethyl)pyrimidin-2-yl]-3,8-diazabicyclo[4.2.0]octane], the Ki at human orexin 1 receptor worked out at 625 nM; at human orexin-2 receptor (setting [1]), 23 nM.
In the same order, the values of `CNc1cc(N2C[C@@H]3CCN(C(=O)c4cc(F)ccc4-n4nccn4)C[C@@H]32)ncn1` [Example 190, 6-[(1R,6S)-3-{[5-Fluoro-2-(2H-1,2,3-triazol-2-yl)phenyl]carbonyl}-3,8-diazabicyclo[4.2.0]oct-8-yl]-N-methylpyrimidin-4-amine] are 10000 nM and 1100 nM.
